Test results reported in patent publication US7858630B2, “D3 and 5-HT2A receptor modulators” (Hoffmann-La Roche Inc., priority 2008, dated 2010).

Legend:
[1] = target: T1, human dopamine D3 receptor (Homo sapiens, UniProt P35462); experiment: Radioligand binding ([3H]-spiperone) to membranes of HEK-293 EBNA cells expressing human D3 receptor; settings: human D3, 0.5 nM [3H]-spiperone, HEK-293 EBNA membranes, 1 h at RT
T1 construct: expressed in transfected cells; host or cells: HEK-293 EBNA cells, transient transfection; membrane preparation
Method in brief: (§1)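 Membranes from HEK-293 EBNA cells transiently transfected with the receptor were incubated 1 h at RT with ten test concentrations (10 μM–0.1 nM) and ~0.7 nM [3H]-spiperone (D2), 0.5 nM [3H]-spiperone (D3) or 1.1 nM [3H]-ketanserin (5-HT2A). Nonspecific binding was set with 10 μM spiperone, bound radioactivity was read by filtration and scintillation, and Ki was taken from IC50 via Cheng-Prusoff.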

[2] = target: T2, human dopamine D2 receptor (Homo sapiens, UniProt P14416); experiment: Radioligand binding ([3H]-spiperone) to membranes of HEK-293 EBNA cells expressing human D2 receptor; settings: human D2, 0.7 nM [3H]-spiperone, HEK-293 EBNA membranes, 1 h at RT
T2 construct: expressed in transfected cells; host or cells: HEK-293 EBNA cells, transient transfection; membrane preparation
Method in brief: as §1

[3] = target: T3, human serotonin 5-HT2A receptor (Homo sapiens, UniProt P28223); experiment: Radioligand binding ([3H]-ketanserin) to membranes of HEK-293 EBNA cells expressing human 5-HT2A receptor; settings: 1.1 nM [3H]-ketanserin, HEK-293 EBNA membranes, 1 h at RT
T3 construct: expressed in transfected cells; host or cells: HEK-293 EBNA cells, transient transfection; membrane preparation
Method in brief: as §1

T3 sequence (P28223 whole entry): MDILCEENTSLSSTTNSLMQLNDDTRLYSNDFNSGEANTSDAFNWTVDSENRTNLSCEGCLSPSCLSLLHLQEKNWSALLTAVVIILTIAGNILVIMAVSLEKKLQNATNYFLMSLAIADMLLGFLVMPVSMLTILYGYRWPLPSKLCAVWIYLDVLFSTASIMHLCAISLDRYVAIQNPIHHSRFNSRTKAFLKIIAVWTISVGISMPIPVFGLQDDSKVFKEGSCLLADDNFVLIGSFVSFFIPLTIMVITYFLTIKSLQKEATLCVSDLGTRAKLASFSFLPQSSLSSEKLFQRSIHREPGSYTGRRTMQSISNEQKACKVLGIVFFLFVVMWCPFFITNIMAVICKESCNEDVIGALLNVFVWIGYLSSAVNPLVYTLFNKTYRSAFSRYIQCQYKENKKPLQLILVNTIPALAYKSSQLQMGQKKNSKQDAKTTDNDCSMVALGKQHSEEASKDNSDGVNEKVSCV
T1 sequence (P35462 whole entry): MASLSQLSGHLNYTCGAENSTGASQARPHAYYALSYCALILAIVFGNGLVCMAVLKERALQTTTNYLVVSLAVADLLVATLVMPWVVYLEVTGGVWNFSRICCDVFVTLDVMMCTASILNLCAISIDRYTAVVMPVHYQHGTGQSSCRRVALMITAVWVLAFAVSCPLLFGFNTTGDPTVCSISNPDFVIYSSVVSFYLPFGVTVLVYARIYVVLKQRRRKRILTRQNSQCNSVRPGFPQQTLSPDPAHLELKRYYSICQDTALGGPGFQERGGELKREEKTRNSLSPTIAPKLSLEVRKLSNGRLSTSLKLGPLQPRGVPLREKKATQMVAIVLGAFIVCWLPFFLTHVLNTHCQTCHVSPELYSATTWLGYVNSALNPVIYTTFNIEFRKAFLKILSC
T2 sequence (P14416 whole entry): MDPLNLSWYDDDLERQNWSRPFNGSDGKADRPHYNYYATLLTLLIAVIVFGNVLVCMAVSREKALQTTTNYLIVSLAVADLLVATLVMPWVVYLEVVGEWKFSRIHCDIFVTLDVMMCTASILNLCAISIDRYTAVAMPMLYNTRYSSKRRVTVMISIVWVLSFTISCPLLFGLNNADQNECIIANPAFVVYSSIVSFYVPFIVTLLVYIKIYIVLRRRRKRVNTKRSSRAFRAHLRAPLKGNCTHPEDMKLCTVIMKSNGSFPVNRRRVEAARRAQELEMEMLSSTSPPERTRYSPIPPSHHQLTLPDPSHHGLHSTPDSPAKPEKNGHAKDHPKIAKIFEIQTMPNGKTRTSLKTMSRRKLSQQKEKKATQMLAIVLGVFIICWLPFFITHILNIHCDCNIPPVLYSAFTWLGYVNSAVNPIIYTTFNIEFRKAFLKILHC

| Compound | Ki [1] [nM] | Ki [2] [nM] | Ki [3] [nM] |
| --- | --- | --- | --- |
| CCC(=O)N[C@H]1CC[C@H](CCN2CCN(c3noc4cc(Cl)c(F)cc34)CC2)CC1 [Example 70, N-trans-(4-{2-{4-(6-Chloro-5-fluoro-benzo[d]isoxazol-3-yl)-piperazin-1-yl]-ethyl}-cyclohexyl)-propionamide] | 7.15 | 852 | 68.1 |
| COCCC(=O)N[C@H]1CC[C@H](CCN2CCN(c3noc4cc(Cl)c(F)cc34)CC2)CC1 [Example 71, N-trans-(4-{2-[4-(6-Chloro-5-fluoro-benzo[d]isoxazol-3-yl)-piperazin-1-yl]-ethyl}-cyclohexyl)-3-methoxy-propionamide] | 20.1 | 1430 | 89.2 |
| O=C(CC1CCOCC1)N[C@H]1CC[C@H](CCN2CCN(c3noc4cc(Cl)c(F)cc34)CC2)CC1 [Example 72, N-trans-(4-{2-[4-(6-Chloro-5-fluoro-benzo[d]isoxazol-3-yl)-piperazin-1-yl]-ethyl}-cyclohexyl)-2-(tetrahydro-pyran-4-yl)-acetamide] | 24.3 | 11300 | 36.6 |
| CC(=O)N[C@H]1CC[C@H](CCN2CCN(c3noc4cc(F)c(Cl)cc34)CC2)CC1 [Example 73, N-trans-(4-{2-[4-(5-Chloro-6-fluoro-benzo[d]isoxazol-3-yl)-piperazin-1-yl]-ethyl}-cyclohexyl)-acetamide] | 9.74 | 559 | 16.8 |
| COCCC(=O)N[C@H]1CC[C@H](CCN2CCN(c3noc4cc(F)c(Cl)cc34)CC2)CC1 [Example 74, N-trans-(4-{2-[4-(5-Chloro-6-fluoro-benzo[d]isoxazol-3-yl)-piperazin-1-yl]-ethyl}-cyclohexyl)-3-methoxy-propionamide] | 10.1 | 260 | 12.2 |
| O=C(CC1CC1)N[C@H]1CC[C@H](CCN2CCN(c3noc4cc(F)c(Cl)cc34)CC2)CC1 [Example 75, N-trans-(4-{2-[4-(5-Chloro-6-fluoro-benzo[d]isoxazol-3-yl)-piperazin-1-yl]-ethyl}-cyclohexyl)-2-cyclopropyl-acetamide] | 1.65 | 1500 | 5.92 |
| O=C(CC1COCCO1)N[C@H]1CC[C@H](CCN2CCN(c3noc4cc(F)c(Cl)cc34)CC2)CC1 (stereo partly drawn) [Example 76, N-trans-(4-{2-[4-(5-Chloro-6-fluoro-benzo[d]isoxazol-3-yl)-piperazin-1-yl]-ethyl}-cyclohexyl)-2-[1,4]dioxan-2-yl-acetamide] | 19.9 | 632 | 20.4 |
| O=C(CC1OCCCO1)N[C@H]1CC[C@H](CCN2CCN(c3noc4cc(F)c(Cl)cc34)CC2)CC1 [Example 77, N-trans-(4-{2-[4-(5-Chloro-6-fluoro-benzo[d]isoxazol-3-yl)-piperazin-1-yl]-ethyl}-cyclohexyl)-2-[1,3]dioxan-2-yl-acetamide] | 6.06 | 2300 | 2.26 |
| COC(CC(=O)N[C@H]1CC[C@H](CCN2CCN(c3noc4cc(F)c(Cl)cc34)CC2)CC1)OC [Example 78, N-trans-(4-{2-[4-(5-Chloro-6-fluoro-benzo[d]isoxazol-3-yl)-piperazin-1-yl]-ethyl}-cyclohexyl)-3,3-dimethoxy-propionamide] | 6.26 | 1310 | 5.05 |
| O=C(C[C@H]1C[C@H](CO)C1)N[C@H]1CC[C@H](CCN2CCN(c3noc4cc(F)c(Cl)cc34)CC2)CC1 [Example 79, N-trans-(4-{2-[4-(5-Chloro-6-fluoro-benzo[d]isoxazol-3-yl)-piperazin-1-yl]-ethyl}-cyclohexyl)-2-trans-(3-hydroxymethyl-cyclobutyl)-acetamide] | 5.47 | 6870 | 2.48 |
| COC[C@H]1C[C@H](CC(=O)N[C@H]2CC[C@H](CCN3CCN(c4noc5cc(F)c(Cl)cc45)CC3)CC2)C1 [Example 80, N-trans-(4-{2-[4-(5-Chloro-6-fluoro-benzo[d]isoxazol-3-yl)-piperazin-1-yl]-ethyl}-cyclohexyl)-2-trans-(3-methoxymethyl-cyclobutyl)-acetamide] | 6.42 | 11700 | 2.98 |
| CSCCC(=O)N[C@H]1CC[C@H](CCN2CCN(c3noc4cc(F)c(Cl)cc34)CC2)CC1 [Example 81, N-trans-(4-{2-[4-(5-Chloro-6-fluoro-benzo[d]isoxazol-3-yl)-piperazin-1-yl]-ethyl}-cyclohexyl)-3-methylsulfanyl-propionamide] | 4.38 | 11100 | 5.28 |
| Cc1cc(CC(=O)N[C@H]2CC[C@H](CCN3CCN(c4noc5cc(F)c(Cl)cc45)CC3)CC2)on1 [Example 82, N-trans-(4-{2-[4-(5-Chloro-6-fluoro-benzo[d]isoxazol-3-yl)-piperazin-1-yl]-ethyl}-cyclohexyl)-2-(3-methyl-isoxazol-5-yl)-acetamide] | 1.37 | 11100 | 2.99 |
| O=C(N[C@H]1CC[C@H](CCN2CCN(c3noc4cc(F)c(Cl)cc34)CC2)CC1)C1CC(Cl)C1 (stereo partly drawn) [Example 83, 3-Chloro-cyclobutanecarboxylic acid N-trans-(4-{2-[4-(5-chloro-6-fluoro-benzo[d]isoxazol-3-yl)-piperazin-1-yl]-ethyl}-cyclohexyl)-amide] | 5.85 | 11100 | 8.55 |
| O=C(N[C@H]1CC[C@H](CCN2CCN(c3noc4cc(F)c(Cl)cc34)CC2)CC1)c1ccc(Cl)s1 [Example 84, 5-Chloro-thiophene-2-carboxylic acid N-trans-(4-{2-[4-(5-chloro-6-fluoro-benzo[d]isoxazol-3-yl)-piperazin-1-yl]-ethyl}-cyclohexyl)-amide] | 2.94 | 258 | 7.11 |
| COc1ccc(C(=O)N[C@H]2CC[C@H](CCN3CCN(c4noc5cc(F)c(Cl)cc45)CC3)CC2)s1 [Example 85, 5-Methoxy-thiophene-2-carboxylic acid N-trans-(4-{2-[4-(5-chloro-6-fluoro-benzo[d]isoxazol-3-yl)-piperazin-1-yl]-ethyl}-cyclohexyl)-amide] | 8.2 | 368 | 7.47 |
| CCC(=O)N[C@H]1CC[C@H](CCN2CCN(c3noc4cc(F)c(Cl)cc34)CC2)CC1 [Example 86, N-trans-(4-{2-[4-(5-Chloro-6-fluoro-benzo[d]isoxazol-3-yl)-piperazin-1-yl]-ethyl}-cyclohexyl)-propionamide] | 5.16 | 250 | 9.53 |
| O=C(CO)N[C@H]1CC[C@H](CCN2CCN(c3noc4cc(F)c(Cl)cc34)CC2)CC1 [Example 87, N-trans-(4-{2-[4-(5-Chloro-6-fluoro-benzo[d]isoxazol-3-yl)-piperazin-1-yl]-ethyl}-cyclohexyl)-2-hydroxy-acetamide] | 9.97 | 401 | 8.6 |
| CO[C@H]1CC[C@H](CC(=O)N[C@H]2CC[C@H](CCN3CCN(c4noc5cc(F)c(Cl)cc45)CC3)CC2)CC1 [Example 88, N-trans-(4-{2-[4-(5-Chloro-6-fluoro-benzo[d]isoxazol-3-yl)-piperazin-1-yl]-ethyl}-cyclohexyl)-2-trans-(4-methoxy-cyclohexyl)-acetamide] | 31.1 | 11200 | 16.7 |
| CS(=O)(=O)CC(=O)N[C@H]1CC[C@H](CCN2CCN(c3noc4cc(F)c(Cl)cc34)CC2)CC1 [Example 89, N-trans-(4-{2-[4-(5-Chloro-6-fluoro-benzo[d]isoxazol-3-yl)-piperazin-1-yl]-ethyl}-cyclohexyl)-2-methanesulfonyl-acetamide] | 5.72 | 11200 | 2.89 |
| CS(=O)(=O)CCC(=O)N[C@H]1CC[C@H](CCN2CCN(c3noc4cc(F)c(Cl)cc34)CC2)CC1 [Example 90, N-trans-(4-{2-[4-(5-Chloro-6-fluoro-benzo[d]isoxazol-3-yl)-piperazin-1-yl]-ethyl}-cyclohexyl)-3-methanesulfonyl-propionamide] | 14.3 | 1190 | 7.64 |
| COC(=O)N[C@H]1CC[C@H](CCN2CCN(c3noc4cc(F)c(Cl)cc34)CC2)CC1 [Example 91, N-trans-(4-{2-[4-(5-Chloro-6-fluoro-benzo[d]isoxazol-3-yl)-piperazin-1-yl]-ethyl}-cyclohexyl)-carbamic acid methyl ester] | 0.58 | 197 | 1.84 |
| O=C(N[C@H]1CC[C@H](CCN2CCN(c3noc4cc(F)c(Cl)cc34)CC2)CC1)C1CCC1 [Example 92, Cyclobutanecarboxylic acid N-trans-(4-{2-[4-(5-chloro-6-fluoro-benzo[d]isoxazol-3-yl)-piperazin-1-yl]-ethyl}-cyclohexyl)-amide] | 12.4 | 4070 | 11.6 |
| COCCC(=O)N[C@H]1CC[C@H](CCN2CCN(c3noc4cc(Cl)c(Cl)cc34)CC2)CC1 [Example 94, N-trans-(4-{2-[4-(5,6-Dichloro-benzo[d]isoxazol-3-yl)-piperazin-1-yl]-ethyl}-cyclohexyl)-3-methoxy-propionamide] | 2.23 | 1970 | 26.3 |
| O=C(N[C@H]1CC[C@H](CCN2CCN(c3noc4cc(Cl)c(Cl)cc34)CC2)CC1)C1CCOCC1 [Example 95, Tetrahydro-pyran-4-carboxylic acid N-trans-(4-{2-[4-(5,6-dichloro-benzo[d]isoxazol-3-yl)-piperazin-1-yl]-ethyl}-cyclohexyl)-amide] | 117 | 7950 | 49.9 |
